Assay results reported in paper PMC7352342, “Inhibition of Patched Drug Efflux Increases Vemurafenib Effectiveness against Resistant Braf^V600E Melanoma” (Cancers, 2020).
Where a name gives a salt, the structure may show the parent alone. Read-outs that look alike come from different tables or passages of the source.

How the values were obtained:
MeWo cells [1] = test: Cytotoxicity assay (neutral red), MeWo cells; format: cell-based, human; conditions: for Dxr-IC50 in the presence of 20 µM compound: MeWo (Figure 3B), same series also tested on A375 (Figure S1); for Dxr-IC50 in the presence of 20 µM compound / effect on dxr cytotoxicity: compound at 20 µM; for effect on dxr cytotoxicity: melanoma cells MeWo (Figure 3B) and A375 (Figure S1), compared to PAH; for IC50: Homo sapiens
Procedure: (§1) Human melanoma cell lines A375 and MeWo were purchased from ATCC, and cultured in DMEM medium supplemented with 10% fetal bovine serum and penicillin/streptomycin (Invitrogen) at 37 °C in a 5% CO2/95% water-saturated air atmosphere. Melanoma cell lines SKMEL 28, SKMEL V3, WM9S, and WM9R were provided by Robert Ballotti (C3M, Nice, France). MeWo-dxrR cells were obtained by adding increasing concentrations of doxorubicin, up to 0.2 µM, in the culture medium over 6 months. These cells were grown in medium supplemented with 0.2 µM dxr. WM9R cells were obtained by adding increasing concentrations of vemurafenib, up to 5 µM, in the culture medium over 6 months. These cells were grown in medium supplemented with 5 µM vemurafenib. HEK cells were grown in 75 mm tissue culture dishes (Falcon, Franklin Lakes, NJ, USA) in Dulbecco’s modified Eagle’s medium (Gibco, Life Technologies, Saint Aubin, France) supplemented with 10% fetal calf serum (Hyclone, Thermo Fisher Scientific GMBH, Ulm, Germany) and 1% penicillin/streptomycin (Gibco, Life Technologies, Saint Aubin, France) in a humidified incubator at 37 °C (5% CO2).
(§2) Cells were seeded in 96-well plates in triplicate and grown in medium to achieve 70 to 80% confluence. Medium was then removed and replaced with 100 µL/well of complete medium containing PAH or DMSO as a control. After 2 h, 100 µL of complete medium containing serial dilutions of dxr, cisplatin or vemurafenib were added. Plates were incubated at 37 °C and 5% CO2. After 24 or 48 h, cells were incubated for 3 h at 37 °C with 100 µL/well neutral red (NR) solution (50 µg/mL in medium) following the manufacturer’s protocol. Measurements were made in microplate readers (Multiskan Go Microplate Spectrophotometer from Thermo Scientific).

A375 cells [2] = test: Cytotoxicity assay (neutral red), A375 cells; format: cell-based, human; conditions: for IC50: Homo sapiens
Procedure: as §1, §2

MeWo cells [3] = test: Melanoma cells grafted on the chorioallantoic membrane (CAM) of chick eggs; format: in vivo; conditions: MeWo tumors on CAM; sPAH 500 µM and/or Dxr 20 µM, 100 µL every two days, 10 days
Procedure: These experiments were performed by the company INOVOTION (La Tronche, France). Fertilized White Leghorn eggs were randomized in 4 groups 9 days after inoculation of 3.10^6 MeWo cells onto the CAM of each egg. At day 10 (E10), tumors began to be detectable and they were treated by adding 100 µL of vehicle (1.2% DMSO in PBS), doxorubicin, and sPAH alone or with doxorubicin. Eggs were treated every two days (E10, E12, E14, E16, E18) for 10 days in the same way. At day 19 (E19), the upper portion of the CAM was removed, washed in PBS, and directly transferred in PFA for 48 h, and the tumors were then carefully cut away from normal CAM tissue.

MeWo-DxrR cells = test: Cytotoxicity assay (neutral red), MeWo cells rendered resistant to dxr; format: cell-based; conditions: Homo sapiens, Dxr + DMSO
Procedure: as §1
Cells were seeded in 96-well plates in triplicate and grown in medium to achieve 70 to 80% confluence. […] Measurements were made in microplate readers (Multiskan Go Microplate Spectrophotometer from Thermo Scientific).

WM9R cells = test: Competition on dxr loading, WM9R cells; format: cell-based; conditions: 10 µM dxr, 100 µM vemurafenib, 1 h
Procedure: (§3) Dxr efflux measurements were carried out as previously described. Cells were seeded on coverslips in 24-well plates and allowed to grow to 80% confluence. Coverslips were incubated at 37 °C and 5% CO2 with 10 μM dxr in physiological buffer (140 mM NaCl, 5 mM KCl, 1 mM CaCl2, 1 mM MgSO4, 5 mM glucose, 20 mM HEPES, pH 7.4). After 2 h, three coverslips were immediately fixed with 4% PFA for the dxr loading control, rapidly washed with PBS and mounted in SlowFade Gold antifade reagent with DAPI (Invitrogen). The other coverslips (triplicated per condition) were incubated with physiological buffer supplemented with DMSO or 10 µM of PAH under gentle shaking at room temperature and protected from light. After 30 min, coverslips were fixed with 4% PFA, washed, and mounted as described above. For competition on dxr loading, A375 and WM9R cells seeded on coverslips were incubated for 1 h at 37 °C and 5% CO2 with 10 μM dxr in physiological buffer in the presence or the absence of 100 µM vemurafenib. Images were acquired with a Zeiss Axioplan 2 fluorescence microscope coupled to a digital charge-coupled device camera using a 40×/1.3 Plan NeoFluar objective and filters for Alexa 594. Dxr fluorescence was quantified using ImageJ software. Sampling of cells was performed randomly. About 100 cells (from three wells) were scored per condition per experiment.

[4] = test system: A375 BRAF^V600E melanoma cells; test: Melanoma xenograft study in mice; format: in vivo; conditions: Figure S6
Procedure: Forty-eight male athymic Nu/NU NMRI mice (4–5 weeks) were purchased from Charles River and housed under pathogen-free conditions. A 200 µL aliquot of 3 Millions A375 BRAF^V600E melanoma cells were injected subcutaneously per mouse. […] Animals were monitored daily for symptoms of disease (weight loss >20%, ruffled coat, hunched back, weakness, reduced motility) and tumor sizes were measured every 3 to 4 days. […]
A part of each tumor was cut in 8 µm thick tissue sections using a microtome-cryostat for quantification of the number of apoptotic tumor cells and of proliferative cells performed using the colorimetric DeadEND TUNEL System (Promega, Mannheim, Germany) and immunofluorescence analysis of Ki67 (BD pharmigen 556003), respectively. OCT was removed from the remainder of each tumor, and tumors were crushed in 50 mM Tris-HCl pH 6.8, 10% glycerol, and 2% SDS), heated at 95 °C, and sonicated for Western blot analyses as well as vemurafenib and cholesterol quantification. Protein concentration in each homogenate was evaluated using a Bio-Rad protein assay based on the Bradford dye-binding method.

A375 cells [5] = test: Competition on dxr loading, A375 cells; format: cell-based, human; conditions: 10 µM dxr, 100 µM vemurafenib, 1 h
Procedure: as §3

COc1ccc(O)c(CC=C(C)CCc2c(C)cc(OC)c(C)c2C)c1 [Compound 8]
Dxr-IC50 in the presence of 20 µM compound (MeWo cells [1]): could not be determined, owing to greater than 50% viability
effect on dxr cytotoxicity (MeWo cells [1]): had no effect on dxr cytotoxicity

COc1cc(C)c(CCC(C)=CCC2=CC(=O)C=CC2=O)c(C)c1C [Compound 9, Panicein A]
Dxr-IC50 in the presence of 20 µM compound (MeWo cells [1]): could not be determined, owing to greater than 50% viability
effect on dxr cytotoxicity (MeWo cells [1]): very weakly increased the cytotoxicity of dxr

COc1ccc(O)c(CCC(C)CCc2c(C)cc(OC)c(C)c2C)c1 (centres unmarked) [Compound 11]
Dxr-IC50 in the presence of 20 µM compound (MeWo cells [1]): could not be determined, owing to greater than 50% viability

COc1cc(C)c(CCC(C)CCC2=CC(=O)C=CC2=O)c(C)c1C (centres unmarked) [Compound 12]
Dxr-IC50 in the presence of 20 µM compound (MeWo cells [1]): could not be determined, owing to greater than 50% viability

COc1cc(C)c(CCC(C)CCc2cc(O)ccc2O)c(C)c1C (centres unmarked) [Compound 13]
Dxr IC50 in the presence of compound relative to that in the presence of PAH (A375 cells [2]; A375, 20 µM compound): comparable to that of PAH
Dxr IC50 in the presence of compound relative to that in the presence of PAH (MeWo cells [1]; MeWo, 20 µM compound): approximately 4 fold

COc1cccc2c1C(=O)c1c(O)c3c(c(O)c1C2=O)C[C@@](O)(C(=O)CO)C[C@@H]3O[C@H]1C[C@H](N)[C@H](O)[C@H](C)O1 [Dxr, Doxorubicin hydrochloride, reference compound]
Tumor regression (%) (tumor weight with respect to control) (MeWo cells [3]): 28%
IC50 (A375 cells [2]; A-375, A375, Dxr + DMSO, 24 or 48 h, read-out: Dxr IC50): 41 ± 8.2 µM
IC50 (MeWo cells [1]; MeWo, Dxr + DMSO, 24 or 48 h, read-out: Dxr IC50): 142 ± 2.2 µM
IC50 (MeWo-DxrR cells): 247 ± 49 µM

COc1cc(C)c(CC/C(C)=C/Cc2cc(O)ccc2O)c(C)c1C [Natural PAH, panicein A hydroquinone]
IC50 (A375 cells [2]; A-375, A375 cells, 2 µM Dxr present, read-out: IC50 of PAH at 2 µM Dxr): 12.4 ± 4.9 µM
IC50 (MeWo cells [1]; MeWo, MeWo cells, 2 µM Dxr present, read-out: IC50 of PAH at 2 µM Dxr): 6.6 ± 0.8 µM

CCCS(=O)(=O)Nc1ccc(F)c(C(=O)c2c[nH]c3ncc(-c4ccc(Cl)cc4)cc23)c1F [vemurafenib]
amount of dxr in cells in the presence of vemurafenib (WM9R cells): significantly increased
ERK phosphorylation in tumor extracts (pERK/ERK, Western blot) [4]: reduced ERK phosphorylation
amount of dxr in cells in the presence of vemurafenib (A375 cells [5]): significantly increased
